# From publication PMC9295568, “Dual Inhibition of Vacuolar-ATPase and TMPRSS2 Is Required for Complete Blockade of SARS-CoV-2 Entry into Cells” (Antimicrobial Agents and Chemotherapy, 2022)
# Read-outs that look alike come from different tables or passages of the source.
# Columns and labels:
# Assay type in all cases: cell-based
# [1] = system: authentic SARS-CoV-2 (SARS-CoV-2/Canada/ON/VIDO-01/2020/Vero'76/p2); experiment: microbe, parasite or virus in culture; settings: for IC50: Severe acute respiratory syndrome coronavirus 2, read-out: IC50, authentic SARS-CoV-2
# [2] = system: authentic SARS-CoV-2 (SARS-CoV-2/Canada/ON/VIDO-01/2020/Vero'76/p2); experiment: microbe, parasite or virus in culture; settings: for IC50: Severe acute respiratory syndrome coronavirus 2, Vero 76, read-out: IC50, authentic SARS-CoV-2
# [3] = system: SARS-CoV-2 PsV B.1.351 (Beta); experiment: microbe, parasite or virus in culture; settings: Severe acute respiratory syndrome coronavirus 2, Vero/TMPRSS2, read-out: IC50, inhibition of PsV entry
# [4] = system: SARS-CoV-2 PsV (wild-type S protein); experiment: microbe, parasite or virus in culture; settings: for IC50: Severe acute respiratory syndrome coronavirus 2, Vero-TMPRSS2 (+TMPRSS2), WT PsV, read-out: IC50, inhibition of PsV entry
# [5] = system: SARS-CoV-2 PsV
# [6] = system: SARS-CoV-2 PsV B.1.1.7 (Alpha); experiment: microbe, parasite or virus in culture; settings: Severe acute respiratory syndrome coronavirus 2, HeLa-ACE2, read-out: IC50, inhibition of PsV entry
# [7] = system: SARS-CoV-2 PsV (wild-type S protein); experiment: microbe, parasite or virus in culture
# [8] = system: SARS-CoV-2 PsV B.1.1.529 (Omicron); experiment: microbe, parasite or virus in culture; settings: Severe acute respiratory syndrome coronavirus 2, Vero/TMPRSS2, read-out: IC50, inhibition of PsV entry
# [9] = system: SARS-CoV-2 PsV B.1.1.529 (Omicron); experiment: microbe, parasite or virus in culture; settings: Severe acute respiratory syndrome coronavirus 2, HeLa-ACE2, read-out: IC50, inhibition of PsV entry
# [10] = system: SARS-CoV-2 PsV B.1.351 (Beta); experiment: microbe, parasite or virus in culture; settings: Severe acute respiratory syndrome coronavirus 2, HeLa-ACE2, read-out: IC50, inhibition of PsV entry
# [11] = system: SARS-CoV-2 PsV B.1.1.7 (Alpha); experiment: microbe, parasite or virus in culture; settings: Severe acute respiratory syndrome coronavirus 2, Vero/TMPRSS2, read-out: IC50, inhibition of PsV entry
# [12] = Cell viability (CellTiter-Glo), HeLa-ACE2 cells; settings: human, read-out: half-cytotoxic concentration (CC50)
# Protocol: (§1) In order to confirm that the reduced luminescence was not related to cell toxicity, HeLa-ACE2 and Vero-TMPRSS2 cell viability upon incubation with serial dilutions of the sample compounds were tested in parallel to the neutralization assay. […] Cell viability was monitored by adding 50 μL of CellTiter-Glo reagent (Promega) to 200 μL of media containing cells. After a 10-minute incubation, 100 μL volume was transferred to a 96-well white plate (Sigma-Aldrich) to measure luminescence using a Synergy Neo2 Multi-Mode Assay Microplate Reader (Biotek Instruments). As an additional measure of cell toxicity Vero cell, lacking TMPRSS2, viability was measured using PrestoBlue (ThermoFisher). 10,000 cells/well of pre-seeded Vero cells were cocultured with the same serial dilutions of the sample compounds at 37°C for 48 h. At 48 h, 10 μL of PrestoBlue (ThermoFisher) was added to 100 μL of media containing cells. After a 2 h incubation, fluorescence was measured using a Spectromax m5e (Molecular Devices) at an excitation of 555 nm and emission of 585 nm. Data were plotted and half-cytotoxic concentration (CC50) values were calculated using Prims 9 (GraphPad).
# [13] = system: endosomal acidification in HeLa-ACE2 cells; experiment: Inhibition of endosomal acidification (LysoTracker Red DND-99), HeLa-ACE2 cells
# Protocol: Inhibition of endosomal acidification was measured using LysoTracker Red DND-99 (ThermoFisher). HeLa-ACE2 and Vero-TMPRSS2 cells were prepared following the above-mentioned protocol, where 10,000 cells/well of pre-seeded cells were cocultured with the same serial dilutions of the sample compounds at 37°C for 2 h. Following this, 0.1 μM final concentration of LysoTracker Red DND-99 (ThermoFisher) was added to each well and incubated for 30 min at 37°C. The cell medium was then replaced with 100 μL of FluoroBrite DMEM (ThermoFisher). Fluorescence was measured using a Synergy Neo2 Multi-Mode Assay Microplate Reader (Biotek Instruments) while employing a Texas Red filter. Data were plotted and IC50 values were calculated using Prism 9 (GraphPad).
# [14] = system: endosomal acidification in Vero cells; experiment: cells; settings: Chlorocebus sabaeus; Vero cells, 40 μM, singlet (n=1); read-out: Percent Inhibition (%) of endosomal acidification
# Protocol: Inhibition of endosomal acidification was measured using LysoTracker Red DND-99 (ThermoFisher). […] Data were plotted using Prism 9 (GraphPad).
# [15] = system: HeLa-ACE2 cells; experiment: Cell viability (CellTiter-Glo), HeLa-ACE2 cells; settings: same dose range as PsV assay
# Protocol: as §1
# [16] = HeLa-ACE2, concentrations up to 40 μM
# [17] = HeLa-ACE2, concentrations higher than 1 μM
SMILES,IC50 [1],IC50 [2],IC50 [3],IC50 [4],inhibition of PsV entry by single compound (in words) [5],IC50 [6],IC50 [8],IC50 [9],IC50 [10],CC50 [12],inhibition at 40 µM [14],other results
CN(C)C(=O)COC(=O)Cc1ccc(OC(=O)c2ccc(NC(=N)N)cc2)cc1 [Camostat],38 nM,> 100000 nM,275 nM,252 nM,neither Camostat nor bafilomycin A1 alone fully inhibited PsV entry,> 300000 nM,> 7500 nM,> 300000 nM,> 300000 nM,,,"inhibition of PsV entry (in words) ([7]; HeLa-ACE2 cells lacking TMPRSS2): unable to inhibit; IC50 ([7]; Severe acute respiratory syndrome coronavirus 2, HeLa-ACE2, read-out: IC50, inhibition of PsV entry, HeLa-ACE2 (-TMPRSS2), WT PsV): > 300000 nM; IC50 ([7]; Severe acute respiratory syndrome coronavirus 2, HeLa-ACE2, read-out: IC50, inhibition of PsV entry, HeLa-ACE2 (-TMPRSS2), wild-type S PsV): > 200000 nM; IC50 [11]: 133 nM"
"O=C(Nc1cc(Cl)cc(Cl)c1O)c1c(O)c(Cl)cc(Cl)c1Cl [Oxyclozanide, oxyclozanide]",,,,,,,,,,18700 nM,55%,"effect on infection levels (in words) [7, 16]: did not alter; effect on endosomal acidification (in words) [13, 16]: did not alter"
CO/C1=C\C(C)=C\[C@@H](C)[C@@H](O)[C@@H](C)C/C(C)=C/C=C/[C@H](OC)[C@@H]([C@@H](C)[C@@H](O)[C@H](C)[C@@]2(O)C[C@@H](O)[C@H](C)[C@@H](C(C)C)O2)OC1=O [bafilomycin A1],0.4 nM,9 nM,3.4 nM,9.6 nM,neither Camostat nor bafilomycin A1 alone fully inhibited PsV entry,0.8 nM,1.9 nM,0.3 nM,0.5 nM,,,"effect on SARS-CoV-2 infection titers (in words) [1]: significantly reduced; effect on SARS-CoV-2 infection titers (in words) [2]: significantly reduced; potency of bafilomycin A1 relative to Camostat in stopping viral entry ([4]; Vero-TMPRSS2, ratio of IC50 values): 26 fold; associated cell cytotoxicity (in words) [15]: without displaying any associated cell cytotoxicity; IC50 ([7]; Severe acute respiratory syndrome coronavirus 2, HeLa-ACE2, HeLa-ACE2 (-TMPRSS2), WT PsV, read-out: IC50, inhibition of PsV entry): 0.4 nM; IC50 ([13]; HeLa-ACE2 cells): 0.9 nM"
O=C(Nc1ccc([N+](=O)[O-])cc1Cl)c1cc(Cl)ccc1O [niclosamide],,,,,,,,,,400 nM,75%,"PsV infection (in words) [7, 17]: no measurable infection; endosomal acidification inhibition (in words) [13, 17]: efficient endosomal acidification inhibition"
